The target in assay [1] is T1, Recombinant human farnesyl transferase (FTase) (Homo sapiens, UniProt P49356).
T1 construct: purchased Crelux (Martinsried, Germany)
The experiment in a line: FTase fluorescence assay (farnesylation of dansyl-GCVLS peptide). The class given is biochemical. To be noted: recombinant human FTase 2.5 nM, Dansyl-GCVLS 85 nM, FPP 30 nM, 30° C., 50 minutes.

A further assay has as its system T24/83 cells. The experiment in a line: T24/83 cell proliferation assay (CellTiter-Glo). The class given is cell-based. Particulars: Homo sapiens, 96 h, 4 days. From the text:
T24/83 cell line was purchased from the European Collection of Authenticated Cell Cultures (Salisbury, UK). Recombinant human farnesyl transferase (FTase) and geranylgeranyl transferase type-1 (GGTase) were obtained from Crelux (Martinsried, Germany). Dansyl labelled GCVLS peptide was purchased from Bachem (Torrance, CA), and Dansyl labelled GCVLL peptide was purchased from Bio Synthesis (Lewisville, TX). Farnesyl Pyrophosphate (FPP) and Geranylgeranyl pyrophosphate (GGPP) were purchased from Cayman (Ann Arbor, MI).
Mutant oncogenic HRAS was originally identified in a human bladder carcinoma cell line called T24. T24/83 is a subline of T24 established more recently that has more favorable growth characteristics for in vitro assays. Thus, T24/83 is a well-characterized mutant HRAS-dependent cell line that is an ideal model for quantifying the HRAS-dependent antitumor activity of farnesyltransferase inhibitors.
T24/83 cells were inoculated into 384 well plates at 100 cells/well, and grown in the presence of inhibitor, 0.7% DMSO as a negative control, or 100 μM tipifarnib as a positive control, at 37° C. for 4 days. Cell viability was assessed using the CellTiter-Glo Kit (CTG) (Promega; Madison, WI). Luminescence was recorded using EnVision microplate reader (PerkinElmer; Waltham, MA). In this assay, tipifarmib was used as a positive control. All the assay plates passed the QC criteria (S/B, Z-factor).
A general note: ATP-based viability assays read luminescence as a measure of living cells.

SMILES strings stand for the structures. Bounds are passed on as bounds.

Turning to `Cn1cncc1C1(O)c2cccc(c2)COc2cccc(c2)-c2cc(=O)n(C)c3ccc1cc23` (stereo not drawn) [Compound 42, 3-hydroxy-2^1-methyl-3-(1-methyl-1H-imidazol-5-yl)-2^1,2^2-dihydro-6-oxa-2(4,6)-quinolina-1,4(1,3)-dibenzenacyclohexaphan-2^2-one], the IC50 was not above 10 nM in assay [1] and not above 50 nM with T24/83 cells.

With `Cn1cncc1C1(O)c2ccc(Cl)c(c2)OCCc2cccc(c2)-c2cc(=O)n(C)c3ccc1cc23` (stereo not drawn) [Compound 26, 4^4-chloro-3-hydroxy-2^1-methyl-3-(1-methyl-1H-imidazol-5-yl)-2^1,2^2-dihydro-5-oxa-2(4,6)-quinolina-1,4(1,3)-dibenzenacycloheptaphan-2^2-one], the results for the IC50 (in assay [1]; in the assay on T24/83 cells) were 10 to 100 nM and 50 to 500 nM, respectively.

Consider `COc1cc2c3cc(ccc3n1)C(O)(c1cncn1C)c1ccc(Cl)c(c1)OCCc1cccc-2c1` (stereo not drawn) [Compound 24, 4^4-chloro-2^2-methoxy-3-(1-methyl-1H-imidazol-5-yl)-5-oxa-2(4,6)-quinolina-1,4(1,3)-dibenzenacycloheptaphan-3-ol], for which the IC50 in assay [1] is more than 100 nM; in the assay on T24/83 cells, more than 500 nM.

`[2H]C([2H])([2H])n1c(=O)cc2c3cc(ccc31)C(O)(c1cncn1C)c1cnc(C#N)c(c1)COc1cccc-2c1` (stereo not drawn) [Compound 61, 3-hydroxy-2^1-(methyl-d3)-3-(1-methyl-1H-imidazol-5-yl)-2^2-oxo-2^1,2^2-dihydro-6-oxa-2(4,6)-quinolina-4(3,5)-pyridina-1(1,3)-benzenacyclohexaphane-4^6-carbonitrile]: the half-maximal inhibitory concentration (IC50) in assay [1] was not above 10 nM; with T24/83 cells it was 50 to 500 nM.

As to `Cn1cncc1C1(O)c2ccc(Cl)c(c2)OCCc2cccc(c2)-c2cc(=O)[nH]c3ccc1cc23` (racemic) [Compound 25, (rac)-4^4-chloro-3-hydroxy-3-(1-methyl-1H-imidazol-5-yl)-2^1,2^2-dihydro-5-oxa-2(4,6)-quinolina-1,4(1,3)-dibenzenacycloheptaphan-2^2-one], the half-inhibitory concentration (IC50) in assay [1] is not above 10 nM; in the assay with T24/83 cells, 50 to 500 nM.

As for `Cn1cncc1C1(O)c2ccc(Cl)c(c2)COc2cccc(c2)-c2cc(=O)[nH]c3ccc1cc23` (stereo not drawn) [Compound 44, 4^4-chloro-3-hydroxy-3-(1-methyl-1H-imidazol-5-yl)-2^1,2^2-dihydro-6-oxa-2(4,6)-quinolina-1,4(1,3)-dibenzenacyclohexaphan-2^2-one], the values for the IC50 (in assay [1]; in the assay with T24/83 cells) were not above 10 nM and 50 to 500 nM, respectively.

In the case of `Cn1cncc1C1(O)c2cccc(c2)CCc2cccc(c2)-c2cc(=O)n(C)c3ccc1cc23` (stereo not drawn) [Compound 2, 3-hydroxy-2^1-methyl-3-(1-methyl-1H-imidazol-5-yl)-2^1,2^2-dihydro-2(4,6)-quinolina-1,4(1,3)-dibenzenacyclohexaphan-2^2-one], the concentration for half-maximal inhibition (IC50) fell in the range of 10 to 100 nM in assay [1] and 50 to 500 nM in the assay with T24/83 cells.

Consider `Cn1cncc1C1(O)c2ccc(C#N)c(c2)COc2cccc(c2)-c2cc(C#N)nc3ccc1cc23` (stereo not drawn) [Compound 72, 3-hydroxy-3-(1-methyl-1H-imidazol-5-yl)-6-oxa-2(4,6)-quinolina-1,4(1,3)-dibenzenacyclohexaphane-2^2 4^4-dicarbonitrile], for which the IC50 in assay [1] was not above 10 nM; in the assay on T24/83 cells, 50 to 500 nM.

As for `Cn1cncc1C1(O)c2ccc(Cl)c(c2)OCc2cccc(c2)-c2cc(=O)[nH]c3ccc1cc23` (stereo not drawn) [Compound 13, 4^4-chloro-3-hydroxy-3-(1-methyl-1H-imidazol-5-yl)-2^1,2^2-dihydro-5-oxa-2(4,6)-quinolina-1,4(1,3)-dibenzenacyclohexaphan-2^2-one], the results for the 50% inhibitory concentration (IC50) (in assay [1]; with T24/83 cells) were 10 to 100 nM and 50 to 500 nM, respectively.

`[2H]C([2H])([2H])n1c(=O)cc2c3cc(ccc31)C(N)(c1cncn1C)c1cnc(C#N)c(c1)COc1cccc-2c1` (stereo not drawn) [Compound 62, 3-amino-2^1-(methyl-d3)-3-(1-methyl-1H-imidazol-5-yl)-2^2-oxo-2^1,2^2-dihydro-6-oxa-2(4,6)-quinolina-4(3,5)-pyridina-1(1,3)-benzenacyclohexaphane-4^6-carbonitrile]: the concentration for half-maximal inhibition (IC50) in assay [1] is not above 10 nM; with T24/83 cells, more than 500 nM.

Consider `COc1cc2c3cc(ccc3n1)C(O)(c1cncn1C)c1cnc(C#N)c(c1)COc1cccc-2c1` (stereo not drawn) [Compound 60, 3-hydroxy-2^2-methoxy-3-(1-methyl-1H-imidazol-5-yl)-6-oxa-2(4,6)-quinolina-4(3,5)-pyridina-1(1,3)-benzenacyclohexaphane-4^6-carbonitrile], for which the figures for the IC50 (in assay [1]; in the assay with T24/83 cells) were 10 to 100 nM and more than 500 nM, respectively.

For the compound `Cn1cncc1C1(O)c2ccc(C#N)c(c2)COc2cccc(c2)-c2cc(C(N)=O)nc3ccc1cc23` (stereo not drawn) [Compound 73, 4^4-cyano-3-hydroxy-3-(1-methyl-1H-imidazol-5-yl)-6-oxa-2(4,6)-quinolina-1,4(1,3)-dibenzenacyclohexaphane-2^2-carboxamide], the IC50 in assay [1] was 10 to 100 nM; with T24/83 cells, 50 to 500 nM.

As for `Cn1cncc1C1(O)c2cccc(c2)OCc2cccc(c2)-c2cc(=O)n(C)c3ccc1cc23` (stereo not drawn) [Compound 11, 3-hydroxy-2^1-methyl-3-(1-methyl-1H-imidazol-5-yl)-2^1,2^2-dihydro-5-oxa-2(4,6)-quinolina-1,4(1,3)-dibenzenacyclohexaphan-2^2-one], the half-inhibitory concentration (IC50) in assay [1] is not above 10 nM; in the assay on T24/83 cells, more than 500 nM.

Regarding `Cn1cncc1C1(O)c2cccc(c2)OCCc2cccc(c2)-c2cc(=O)[nH]c3ccc1cc23` (stereo not drawn) [Compound 22, 3-hydroxy-3-(1-methyl-1H-imidazol-5-yl)-2^1,2^2-dihydro-5-oxa-2(4,6)-quinolina-1,4(1,3)-dibenzenacycloheptaphan-2^2-one], the IC50 in assay [1] lay in the range of 10 to 100 nM; in the assay with T24/83 cells it was 50 to 500 nM.

Take `Cn1cncc1[C@@]1(N)c2ccc(C#N)c(c2)COc2cccc(c2)-c2cc(=O)n(CC(O)CO)c3ccc1cc23` (stereo partly drawn) [(S)-69, (3S)-3-amino-2^1-(2,3-dihydroxypropyl)-3-(1-methyl-1H-imidazol-5-yl)-2^2-oxo-2^1,2^2-dihydro-6-oxa-2(4,6)-quinolina-1,4(1,3)-dibenzenacyclohexaphane-4^4-carbonitrile]: the IC50 was not above 10 nM in assay [1] and more than 500 nM in the assay with T24/83 cells.

`Cn1cncc1[C@@]1(N)c2ccc(C#N)c(c2)OCc2cccc(c2)-c2cc(=O)n(C)c3ccc1cc23` [(S)-19, (S)-3-amino-2^1-methyl-3-(1-methyl-1H-imidazol-5-yl)-2^2-oxo-2^1,2^2-dihydro-5-oxa-2(4,6)-quinolina-1,4(1,3)-dibenzenacyclohexaphane-4^4-carbonitrile]: the IC50 in assay [1] was not above 10 nM; in the assay on T24/83 cells, not above 50 nM.

Regarding `COc1cc2c3cc(ccc3n1)C(O)(c1cncn1C)c1cccc(c1)COc1cccc-2c1` (stereo not drawn) [Compound 40, 2^2-methoxy-3-(1-methyl-1H-imidazol-5-yl)-6-oxa-2(4,6)-quinolina-1,4(1,3)-dibenzenacyclohexaphan-3-ol], the IC50 in assay [1] was more than 100 nM; with T24/83 cells it was 50 to 500 nM.

For the compound `Cn1cncc1C1(O)c2cccc(c2)COc2cccc(c2)-c2cc(=O)[nH]c3ccc1cc23` (stereo not drawn) [Compound 41, 3-hydroxy-3-(1-methyl-1H-imidazol-5-yl)-2^1,2^2-dihydro-6-oxa-2(4,6)-quinolina-1,4(1,3)-dibenzenacyclohexaphan-2^2-one], the values for the half-inhibitory concentration (IC50) (in assay [1]; with T24/83 cells) were 10 to 100 nM and 50 to 500 nM, respectively.

Turning to `Cn1cncc1C1(O)c2cccc(c2)CCc2cccc(c2)-c2cc(=O)[nH]c3ccc1cc23` (stereo not drawn) [Compound 1, 3-hydroxy-3-(1-methyl-1H-imidazol-5-yl)-2^1,2^2-dihydro-2(4,6)-quinolina-1,4(1,3)-dibenzenacyclohexaphan-2^2-one], in assay [1], the IC50 was in the range of 10 to 100 nM.

Consider `Cn1cnnc1C1(O)c2ccc(C#N)c(c2)OCCc2cccc(c2)-c2cc(=O)n(C)c3ccc1cc23` (stereo not drawn) [Compound 38, 3-hydroxy-2^1-methyl-3-(4-methyl-4H-1,2,4-triazol-3-yl)-2^2-oxo-2^1,2^2-dihydro-5-oxa-2(4,6)-quinolina-1,4(1,3)-dibenzenacycloheptaphane-4^4-carbonitrile], for which the half-maximal inhibitory concentration (IC50) in assay [1] was not above 10 nM.

On to `COc1cc2c3cc(ccc3n1)C(O)(c1cncn1C)c1ccc(Cl)c(c1)OCc1cccc-2c1` (stereo not drawn) [Compound 12, 4^4-chloro-2^2-methoxy-3-(1-methyl-1H-imidazol-5-yl)-5-oxa-2(4,6)-quinolina-1,4(1,3)-dibenzenacyclohexaphan-3-ol], for which the half-maximal inhibitory concentration (IC50) in assay [1] is more than 100 nM.

As for `Cn1cncc1[C@@]1(N)c2ccc(C#N)c(c2)COc2cccc(c2)-c2cc(OC3COC3)nc3ccc1cc23` [(S)-89, (S)-3-amino-3-(1-methyl-1H-imidazol-5-yl)-2^2-(oxetan-3-yloxy)-6-oxa-2(4,6)-quinolina-1,4(1,3)-dibenzenacyclohexaphane-4^4-carbonitrile], the IC50 in assay [1] is not above 10 nM.

For `Cn1cncc1[C@]1(N)c2ccc(Cl)c(c2)COc2cccc(c2)-c2cc(=O)n(C)c3ccc1cc23` (racemic) [(R)-46, (R)-3-amino-4^4-chloro-2^1-methyl-3-(1-methyl-1H-imidazol-5-yl)-2^1,2^2-dihydro-6-oxa-2(4,6)-quinolina-1,4(1,3)-dibenzenacyclohexaphan-2^2-one], in assay [1], the IC50 is more than 100 nM.

With `Cn1cncc1C1(N)c2ccc(Br)c(c2)COc2cccc(c2)-c2cc(Cl)nc3ccc1cc23` (stereo not drawn) [Compound 74, 4^4-bromo-2^2-chloro-3-(1-methyl-1H-imidazol-5-yl)-6-oxa-2(4,6)-quinolina-1,4(1,3)-dibenzenacyclohexaphan-3-amine], the half-maximal inhibitory concentration (IC50) in assay [1] fell in the range of 10 to 100 nM.

For orientation: IC50 means the concentration needed to halve the response being measured.

(Values after US12018011B2, “Macrocyclic compounds and compositions, and methods of preparing and using the same” (Kura Oncology, Inc., priority 2021, dated 2024).)
